The record followed here is paper PMC10800100, “DoAP2/ERF89 activated the terpene synthase gene DoPAES in Dendrobium officinale and participated in the synthesis of β-patchoulene” (PeerJ, 2024).

The assay has as its target T1, DoPAES (Dendrobium catenatum, UniProt A0A975TQG2).
T1 sequence (A0A975TQG2 1-550): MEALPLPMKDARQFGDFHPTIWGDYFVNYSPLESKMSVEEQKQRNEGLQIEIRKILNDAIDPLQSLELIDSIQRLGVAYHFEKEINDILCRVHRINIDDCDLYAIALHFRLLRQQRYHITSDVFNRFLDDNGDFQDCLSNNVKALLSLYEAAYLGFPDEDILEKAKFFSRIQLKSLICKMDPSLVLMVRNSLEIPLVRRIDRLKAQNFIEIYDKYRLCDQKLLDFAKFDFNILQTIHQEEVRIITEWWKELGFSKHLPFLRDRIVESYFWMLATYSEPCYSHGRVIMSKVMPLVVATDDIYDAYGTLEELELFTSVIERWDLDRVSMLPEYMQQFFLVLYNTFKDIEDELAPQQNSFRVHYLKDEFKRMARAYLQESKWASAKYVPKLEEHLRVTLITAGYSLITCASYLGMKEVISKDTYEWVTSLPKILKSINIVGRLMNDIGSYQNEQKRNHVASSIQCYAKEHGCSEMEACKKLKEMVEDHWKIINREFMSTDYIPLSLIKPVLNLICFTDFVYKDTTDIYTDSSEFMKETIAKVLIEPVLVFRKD
The experiment in a line: HS-SPME-GC-MS of products formed by crude recombinant protein. The format is biochemical. The note with it: 50 mmol/L Tris pH 7.5, 10 mmol/L MgCl2, 10 μmol/L MnCl2, 30 °C, 30 min.

As for `CC(C)=CCC/C(C)=C/CC/C(C)=C/COP(=O)(O)OP(=O)(O)O` [FPP], the “HS-SPME-GC-MS of products formed by crude recombinant protein” value is on record as “The products were then detected by GC-MS after adding substrate FPP”.
